Data: patent publication US9493455B2, “Azaindole derivatives as inhibitors of protein kinases” (ORIBASE PHARMA, priority 2012, dated 2016)

Assays:
HeLa = experiment: In vitro cell proliferation assay (MTT); assay type: cell-based; details: Homo sapiens, 72 h
Method in brief: (§1)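 Growth is assessed with the tetrazolium dye MTT following a 72 hr incubation with compound spanning 10 nM up to 3 μM, each dose tested twice on 5×10^3 plated cells per well.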

PC-3 = experiment: In vitro cell proliferation assay (MTT); assay type: cell-based; details: Homo sapiens, PC-3, 72 h
Method in brief: as §1

BxPC-3 = experiment: In vitro cell proliferation assay (MTT); assay type: cell-based; details: Homo sapiens, BXPC-3, 72 h
Method in brief: as §1

H1975 = experiment: In vitro cell proliferation assay (MTT); assay type: cell-based; details: Homo sapiens, NCI-H1975, 72 h
Method in brief: as §1

HepG2 = experiment: In vitro cell proliferation assay (MTT); assay type: cell-based; details: Homo sapiens, HepG2, 72 h
Method in brief: as §1

HUVEC = experiment: In vitro cell proliferation assay (MTT); assay type: cell-based; details: Homo sapiens, 72 h
Procedure: Cancer cell lines (5×10^3 cells per well) or HUVEC (1×10^4 cells per well) or HRMEC (1×10^4 cells per well) were distributed in 96-well plates and incubating in duplicate with escalating concentrations (10 nM to 3 μM) of compounds for 72 hr. Cell proliferation was measured using MTT (3 [4,5-dimethylthiazol-2-yl]-2,5-diphenyltetrazolium bromide).

MDA-MB-231 = experiment: In vitro cell proliferation assay (MTT); assay type: cell-based; details: Homo sapiens, MDA-MB-231, 72 h
Method in brief: as §1

HT29 = experiment: In vitro cell proliferation assay (MTT); assay type: cell-based; details: Homo sapiens, HT-29, 72 h
Method in brief: as §1

A549 = experiment: In vitro cell proliferation assay (MTT); assay type: cell-based; details: Homo sapiens, A549, 72 h
Method in brief: as §1

EGFR (ErbB1) T790M L858R = molecular target: T1, EGFR (ErbB1) T790M L858R (Homo sapiens, UniProt P00533, L858R/T790M); experiment: In vitro kinase assay (Z′-LYTE); assay type: biochemical; details: read-out: % of inhibition of the kinase compared to the control
T1 construct: purchased Invitrogen
Method in brief: (§2)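 Z′-LYTE FRET assay: kinase phosphorylation of a dual-fluorophore peptide protects it from protease cleavage, and the donor/acceptor emission ratio after 400 nm excitation tracks progress. Compounds were tested at 100 nM, or at 10 μM against ABL T315I, in 1% DMSO final, with ATP at apparent Km.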

VEGFR1 = molecular target: T2, VEGFR1 (Homo sapiens, UniProt P17948); experiment: In vitro kinase assay (Z′-LYTE); assay type: biochemical; details: read-out: % of inhibition of the kinase compared to the control
T2 construct: purchased Invitrogen
T2 sequence (P17948 27-1338): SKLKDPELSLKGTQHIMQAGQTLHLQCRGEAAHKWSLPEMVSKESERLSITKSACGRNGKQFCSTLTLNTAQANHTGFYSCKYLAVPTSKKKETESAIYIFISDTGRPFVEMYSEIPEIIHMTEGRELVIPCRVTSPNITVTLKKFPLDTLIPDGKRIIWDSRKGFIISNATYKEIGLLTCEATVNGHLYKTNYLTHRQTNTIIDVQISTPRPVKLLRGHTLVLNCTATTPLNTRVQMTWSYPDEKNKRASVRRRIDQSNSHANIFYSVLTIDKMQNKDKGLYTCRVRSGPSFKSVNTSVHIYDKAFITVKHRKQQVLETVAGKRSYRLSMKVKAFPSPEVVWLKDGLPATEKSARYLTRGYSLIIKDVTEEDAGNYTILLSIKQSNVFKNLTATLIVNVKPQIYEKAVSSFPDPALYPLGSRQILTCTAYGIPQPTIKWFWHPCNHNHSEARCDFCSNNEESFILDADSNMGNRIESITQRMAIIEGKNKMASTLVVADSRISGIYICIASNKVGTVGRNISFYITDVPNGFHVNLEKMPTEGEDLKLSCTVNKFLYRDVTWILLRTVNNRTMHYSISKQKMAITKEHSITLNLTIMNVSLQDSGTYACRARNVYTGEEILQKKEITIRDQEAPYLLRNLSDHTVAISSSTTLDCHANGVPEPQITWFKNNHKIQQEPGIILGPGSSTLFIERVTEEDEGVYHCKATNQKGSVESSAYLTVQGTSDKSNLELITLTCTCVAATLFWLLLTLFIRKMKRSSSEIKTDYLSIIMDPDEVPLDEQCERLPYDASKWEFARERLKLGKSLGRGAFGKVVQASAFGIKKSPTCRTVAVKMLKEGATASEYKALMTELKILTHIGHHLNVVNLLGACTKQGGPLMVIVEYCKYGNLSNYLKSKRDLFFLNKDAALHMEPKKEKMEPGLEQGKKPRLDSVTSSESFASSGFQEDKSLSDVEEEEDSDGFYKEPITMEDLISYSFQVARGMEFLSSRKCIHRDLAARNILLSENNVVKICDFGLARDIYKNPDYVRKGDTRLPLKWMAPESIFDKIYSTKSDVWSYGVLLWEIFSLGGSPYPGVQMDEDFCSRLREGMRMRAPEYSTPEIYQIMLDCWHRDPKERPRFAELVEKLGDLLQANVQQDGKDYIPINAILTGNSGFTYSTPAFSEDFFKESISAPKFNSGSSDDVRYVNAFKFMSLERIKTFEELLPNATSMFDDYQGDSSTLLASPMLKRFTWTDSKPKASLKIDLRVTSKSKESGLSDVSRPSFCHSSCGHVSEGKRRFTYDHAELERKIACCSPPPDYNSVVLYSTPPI
Method in brief: as §2

ABL = molecular target: T3, ABL (Homo sapiens, UniProt P00519); experiment: In vitro kinase assay (Z′-LYTE); assay type: biochemical; details: read-out: % of inhibition of the kinase compared to the control
T3 construct: purchased Invitrogen

SRC = molecular target: T4, SRC (Homo sapiens, UniProt P12931); experiment: In vitro kinase assay (Z′-LYTE); assay type: biochemical; details: read-out: % of inhibition of the kinase compared to the control
T4 construct: purchased Invitrogen
Method in brief: as §2

FGFR2 = molecular target: T5, FGFR2 (Homo sapiens, UniProt P21802); experiment: In vitro kinase assay (Z′-LYTE); assay type: biochemical; details: read-out: % of inhibition of the kinase compared to the control
T5 construct: purchased Invitrogen
T5 sequence (P21802 22-821): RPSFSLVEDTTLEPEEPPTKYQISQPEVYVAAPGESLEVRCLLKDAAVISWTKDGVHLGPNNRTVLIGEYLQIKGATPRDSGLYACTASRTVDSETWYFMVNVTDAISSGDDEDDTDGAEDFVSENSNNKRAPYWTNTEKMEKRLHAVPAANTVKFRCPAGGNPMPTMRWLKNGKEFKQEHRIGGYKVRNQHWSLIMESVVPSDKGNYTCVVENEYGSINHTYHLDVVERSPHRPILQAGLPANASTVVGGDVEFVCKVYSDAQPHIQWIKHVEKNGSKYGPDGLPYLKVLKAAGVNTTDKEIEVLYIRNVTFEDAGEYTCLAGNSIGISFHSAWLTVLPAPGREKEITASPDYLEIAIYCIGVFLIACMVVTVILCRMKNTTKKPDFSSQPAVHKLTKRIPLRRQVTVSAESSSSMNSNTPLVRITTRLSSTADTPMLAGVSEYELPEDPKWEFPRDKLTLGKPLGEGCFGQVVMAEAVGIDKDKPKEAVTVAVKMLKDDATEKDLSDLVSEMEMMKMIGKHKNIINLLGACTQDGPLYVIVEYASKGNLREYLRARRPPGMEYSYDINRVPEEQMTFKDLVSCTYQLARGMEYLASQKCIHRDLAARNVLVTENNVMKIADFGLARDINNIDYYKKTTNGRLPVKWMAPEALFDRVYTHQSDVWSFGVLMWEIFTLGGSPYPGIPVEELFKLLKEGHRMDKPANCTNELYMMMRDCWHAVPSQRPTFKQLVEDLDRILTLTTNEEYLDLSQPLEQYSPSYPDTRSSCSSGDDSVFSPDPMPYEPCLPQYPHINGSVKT
Method in brief: as §2

BRAF = molecular target: T6, BRAF (Homo sapiens, UniProt P15056); experiment: In vitro kinase assay (Z′-LYTE); assay type: biochemical; details: compound 100 nM; ATP 100 μM; read-out: % of inhibition of the kinase compared to the control
T6 construct: purchased Invitrogen
T6 sequence (P15056 whole entry): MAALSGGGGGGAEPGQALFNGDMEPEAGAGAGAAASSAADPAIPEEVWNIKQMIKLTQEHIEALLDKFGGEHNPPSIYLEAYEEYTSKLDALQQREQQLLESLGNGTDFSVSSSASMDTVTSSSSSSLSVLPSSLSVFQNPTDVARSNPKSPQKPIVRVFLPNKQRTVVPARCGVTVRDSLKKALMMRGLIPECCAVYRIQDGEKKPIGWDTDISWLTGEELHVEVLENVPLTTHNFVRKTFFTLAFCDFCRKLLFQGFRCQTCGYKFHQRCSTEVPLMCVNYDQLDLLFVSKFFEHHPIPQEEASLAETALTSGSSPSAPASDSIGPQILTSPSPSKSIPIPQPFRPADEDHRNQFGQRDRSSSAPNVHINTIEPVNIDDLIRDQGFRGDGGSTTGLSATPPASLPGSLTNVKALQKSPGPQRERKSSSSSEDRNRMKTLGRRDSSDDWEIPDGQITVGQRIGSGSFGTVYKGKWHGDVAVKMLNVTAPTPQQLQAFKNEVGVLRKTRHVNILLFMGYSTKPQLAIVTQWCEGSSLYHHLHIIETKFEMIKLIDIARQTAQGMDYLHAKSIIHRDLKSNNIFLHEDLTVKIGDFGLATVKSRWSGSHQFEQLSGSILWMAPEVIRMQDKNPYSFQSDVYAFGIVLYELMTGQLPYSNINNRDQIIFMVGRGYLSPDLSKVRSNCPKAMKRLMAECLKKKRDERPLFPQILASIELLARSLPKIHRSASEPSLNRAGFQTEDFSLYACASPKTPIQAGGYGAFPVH
Method in brief: as §2

ABL T315I = molecular target: T7, ABL T315I (Homo sapiens, UniProt P00519, T315I); experiment: In vitro kinase assay (Z′-LYTE); assay type: biochemical; details: read-out: % of inhibition of the kinase compared to the control
T7 construct: purchased Invitrogen
Method in brief: as §2

PDGFRA (PDGFR alpha) = molecular target: T8, PDGFRA (PDGFR alpha) (Homo sapiens, UniProt P16234); experiment: In vitro kinase assay (Z′-LYTE); assay type: biochemical; details: read-out: % of inhibition of the kinase compared to the control
T8 construct: purchased Invitrogen
T8 sequence (P16234 24-1089): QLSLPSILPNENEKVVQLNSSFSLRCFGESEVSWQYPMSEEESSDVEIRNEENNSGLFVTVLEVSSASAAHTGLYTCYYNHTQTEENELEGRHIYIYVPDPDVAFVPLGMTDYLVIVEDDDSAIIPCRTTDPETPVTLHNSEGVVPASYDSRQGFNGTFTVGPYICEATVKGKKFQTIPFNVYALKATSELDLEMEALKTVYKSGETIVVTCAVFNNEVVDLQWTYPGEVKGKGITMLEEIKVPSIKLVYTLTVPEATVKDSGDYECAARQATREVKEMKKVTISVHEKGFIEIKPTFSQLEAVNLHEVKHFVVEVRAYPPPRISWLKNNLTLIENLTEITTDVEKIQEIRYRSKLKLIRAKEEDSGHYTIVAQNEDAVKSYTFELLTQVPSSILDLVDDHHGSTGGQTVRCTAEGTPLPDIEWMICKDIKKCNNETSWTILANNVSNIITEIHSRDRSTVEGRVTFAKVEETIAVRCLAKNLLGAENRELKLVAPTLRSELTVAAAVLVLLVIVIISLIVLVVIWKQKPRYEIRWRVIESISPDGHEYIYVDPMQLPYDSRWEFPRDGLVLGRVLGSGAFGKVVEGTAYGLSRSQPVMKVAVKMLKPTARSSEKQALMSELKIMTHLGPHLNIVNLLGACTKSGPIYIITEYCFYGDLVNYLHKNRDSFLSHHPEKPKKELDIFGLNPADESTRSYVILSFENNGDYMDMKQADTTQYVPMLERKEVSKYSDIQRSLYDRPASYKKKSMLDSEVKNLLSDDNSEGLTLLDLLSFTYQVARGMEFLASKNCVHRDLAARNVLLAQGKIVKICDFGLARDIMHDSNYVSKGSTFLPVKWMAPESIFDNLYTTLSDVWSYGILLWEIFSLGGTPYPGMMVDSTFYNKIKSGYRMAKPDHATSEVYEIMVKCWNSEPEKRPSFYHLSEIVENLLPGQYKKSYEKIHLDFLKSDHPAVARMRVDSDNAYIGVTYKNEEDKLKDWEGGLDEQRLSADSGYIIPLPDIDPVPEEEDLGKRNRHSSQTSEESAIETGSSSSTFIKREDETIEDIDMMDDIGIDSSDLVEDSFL
Method in brief: as §2

KDR (VEGFR2) = molecular target: T9, KDR (VEGFR2) (Homo sapiens, UniProt P35968); experiment: In vitro kinase assay (Z′-LYTE); assay type: biochemical; details: read-out: % of inhibition of the kinase compared to the control
T9 construct: purchased Invitrogen
Method in brief: as §2

EGFR (ErbB1) = molecular target: T10, EGFR (ErbB1) (Homo sapiens, UniProt P00533); experiment: In vitro kinase assay (Z′-LYTE); assay type: biochemical; details: read-out: % of inhibition of the kinase compared to the control
T10 construct: purchased Invitrogen
Method in brief: as §2

FGFR1 = molecular target: T11, FGFR1 (Homo sapiens, UniProt P11362); experiment: In vitro kinase assay (Z′-LYTE); assay type: biochemical; details: read-out: % of inhibition of the kinase compared to the control
T11 construct: purchased Invitrogen
Method in brief: as §2

PDGFRB = molecular target: T12, PDGFRB (Homo sapiens, UniProt P09619); experiment: In vitro kinase assay (Z′-LYTE); assay type: biochemical; details: read-out: % of inhibition of the kinase compared to the control
T12 construct: purchased Invitrogen
T12 sequence (P09619 33-1106): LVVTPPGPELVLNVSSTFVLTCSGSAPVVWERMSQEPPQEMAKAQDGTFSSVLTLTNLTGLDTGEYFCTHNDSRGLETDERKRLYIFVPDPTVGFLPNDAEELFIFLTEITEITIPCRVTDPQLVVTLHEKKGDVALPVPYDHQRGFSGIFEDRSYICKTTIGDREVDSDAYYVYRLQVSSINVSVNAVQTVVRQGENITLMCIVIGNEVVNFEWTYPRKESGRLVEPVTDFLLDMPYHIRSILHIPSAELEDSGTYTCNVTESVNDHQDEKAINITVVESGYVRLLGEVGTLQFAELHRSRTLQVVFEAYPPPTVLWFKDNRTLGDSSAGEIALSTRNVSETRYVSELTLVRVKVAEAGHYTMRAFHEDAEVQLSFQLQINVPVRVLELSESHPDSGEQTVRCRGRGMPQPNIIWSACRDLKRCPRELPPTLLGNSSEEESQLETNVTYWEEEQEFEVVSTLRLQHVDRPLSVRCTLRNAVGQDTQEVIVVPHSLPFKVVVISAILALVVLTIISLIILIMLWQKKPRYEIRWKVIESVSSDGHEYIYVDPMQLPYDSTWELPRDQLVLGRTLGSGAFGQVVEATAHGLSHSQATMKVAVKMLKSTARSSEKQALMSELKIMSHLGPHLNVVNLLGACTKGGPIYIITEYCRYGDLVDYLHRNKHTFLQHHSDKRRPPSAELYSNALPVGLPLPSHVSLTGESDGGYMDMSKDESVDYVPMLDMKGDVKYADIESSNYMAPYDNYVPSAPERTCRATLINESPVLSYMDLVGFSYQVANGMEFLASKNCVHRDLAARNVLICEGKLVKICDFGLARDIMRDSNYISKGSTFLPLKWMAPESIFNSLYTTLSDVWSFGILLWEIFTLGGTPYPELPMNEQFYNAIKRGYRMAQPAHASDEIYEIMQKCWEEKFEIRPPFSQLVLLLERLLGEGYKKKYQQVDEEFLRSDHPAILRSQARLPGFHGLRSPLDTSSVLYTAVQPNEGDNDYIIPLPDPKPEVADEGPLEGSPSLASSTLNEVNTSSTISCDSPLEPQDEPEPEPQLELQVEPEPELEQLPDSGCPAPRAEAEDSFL
Method in brief: as §2

HuH6 Clone 5 = experiment: In vitro cell proliferation assay (MTT); assay type: cell-based; details: HUH-6-clone5, 72 h
Method in brief: as §1

HRMEC = experiment: In vitro cell proliferation assay (MTT); assay type: cell-based; details: 72 h
Method in brief: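 Cells were seeded at 5×10^3 per well and exposed in duplicate to escalating compound concentrations from 10 nM to 3 μM for 72 hr. Proliferation was then measured by MTT reduction.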

HuH7 = experiment: In vitro cell proliferation assay (MTT); assay type: cell-based; details: Homo sapiens, Huh-7, 72 h
Method in brief: as §1

HuCCT1 = experiment: In vitro cell proliferation assay (MTT); assay type: cell-based; details: Homo sapiens, HuCCT-1, 72 h
Method in brief: as §1

| SMILES | EC50 (HeLa) | EC50 (PC-3) | EC50 (BxPC-3) | EC50 (H1975) | EC50 (HepG2) | EC50 (MDA-MB-231) | EC50 (HT29) | EC50 (A549) | inhibition at 0.1 µM (EGFR (ErbB1) T790M L858R) | inhibition at 0.1 µM (VEGFR1) | inhibition at 10 µM (ABL) | inhibition at 0.1 µM (SRC) | inhibition at 0.1 µM (FGFR2) | inhibition at 0.1 µM (BRAF) | inhibition at 10 µM (ABL T315I) | inhibition at 0.1 µM (PDGFRA (PDGFR alpha)) | inhibition at 0.1 µM (KDR (VEGFR2)) | inhibition at 0.1 µM (EGFR (ErbB1)) | inhibition at 0.1 µM (FGFR1) | EC50 (HUVEC) | other results |
| --- | --- | --- | --- | --- | --- | --- | --- | --- | --- | --- | --- | --- | --- | --- | --- | --- | --- | --- | --- | --- | --- |
| COC(=O)c1cc2cc(NC(=O)c3cc(NC(=O)c4ccc(CN5CCN(C)CC5)c(C(F)(F)F)c4)ccc3C)cnc2[nH]1 [OR0744] | 100 to 1000 nM | – | – | ≥ 1000 nM | 100 to 1000 nM | 100 to 1000 nM | 100 to 1000 nM | 100 to 1000 nM | ≥ 50% | – | – | ≥ 50% | ≥ 50% | ≥ 50% | – | ≥ 50% | ≥ 50% | ≥ 50% | – | 100 to 1000 nM | EC50 (HuH6 Clone 5): ≥ 1000 nM; EC50 (HRMEC): 100 to 1000 nM; EC50 (HuH7): 100 to 1000 nM; EC50 (HuCCT1): ≥ 1000 nM |
| COC(=O)c1cc2cc(NCc3cc(NC(=O)c4ccc(CN5CCNCC5)c(C(F)(F)F)c4)ccc3C)cnc2[nH]1 [OR0613] | – | ≥ 1000 nM | 100 to 1000 nM | 100 to 1000 nM | ≤ 100 nM | ≤ 100 nM | ≤ 100 nM | 100 to 1000 nM | ≥ 50% | < 50% | ≥ 50% | ≥ 50% | ≥ 50% | ≥ 50% | ≥ 50% | ≥ 50% | ≥ 50% | ≥ 50% | ≥ 50% | ≤ 100 nM | EC50 (HuH6 Clone 5): ≥ 1000 nM; EC50 (HuH7): 100 to 1000 nM; EC50 (HuCCT1): ≥ 1000 nM; inhibition at 0.1 µM (PDGFRB): < 50% |

Continued, in another order:

| EC50 (HeLa) | EC50 (PC-3) | EC50 (BxPC-3) | EC50 (H1975) | EC50 (HepG2) | EC50 (MDA-MB-231) | EC50 (HT29) | EC50 (A549) | inhibition at 0.1 µM (EGFR (ErbB1) T790M L858R) | inhibition at 0.1 µM (VEGFR1) | inhibition at 10 µM (ABL) | inhibition at 0.1 µM (SRC) | inhibition at 0.1 µM (FGFR2) | inhibition at 0.1 µM (BRAF) | inhibition at 10 µM (ABL T315I) | inhibition at 0.1 µM (PDGFRA (PDGFR alpha)) | inhibition at 0.1 µM (KDR (VEGFR2)) | inhibition at 0.1 µM (EGFR (ErbB1)) | inhibition at 0.1 µM (FGFR1) | SMILES | EC50 (HUVEC) | other results |
| --- | --- | --- | --- | --- | --- | --- | --- | --- | --- | --- | --- | --- | --- | --- | --- | --- | --- | --- | --- | --- | --- |
| ≥ 1000 nM | ≥ 1000 nM | ≤ 100 nM | 100 to 1000 nM | ≤ 100 nM | ≤ 100 nM | 100 to 1000 nM | 100 to 1000 nM | < 50% | < 50% | ≥ 50% | ≥ 50% | < 50% | < 50% | ≥ 50% | ≥ 50% | < 50% | < 50% | < 50% | COC(=O)c1cc2cc(NCc3cc(NC(=O)c4cccc(OC(F)(F)F)c4)ccc3C)cnc2[nH]1 [OR0611] | 100 to 1000 nM | inhibition at 0.1 µM (PDGFRB): < 50% |
| ≥ 1000 nM | ≥ 1000 nM | 100 to 1000 nM | 100 to 1000 nM | ≤ 100 nM | ≤ 100 nM | 100 to 1000 nM | 100 to 1000 nM | < 50% | < 50% | ≥ 50% | ≥ 50% | < 50% | < 50% | ≥ 50% | ≥ 50% | < 50% | ≥ 50% | < 50% | COC(=O)c1cc2cc(NCc3cc(NC(=O)c4cccc(C(F)(F)F)c4)ccc3C)cnc2[nH]1 [OR0606] | ≤ 100 nM | inhibition at 0.1 µM (PDGFRB): < 50% |
| 100 to 1000 nM | – | ≤ 100 nM | 100 to 1000 nM | 100 to 1000 nM | 100 to 1000 nM | ≤ 100 nM | ≤ 100 nM | < 50% | – | – | ≥ 50% | < 50% | ≥ 50% | – | ≥ 50% | ≥ 50% | ≥ 50% | – | COC(=O)c1cc2cc(NCc3cc(NC(=O)c4cc(CN5CCN(C)CC5)cc(C(F)(F)F)c4)ccc3C)cnc2[nH]1 [OR0699] | 100 to 1000 nM | EC50 (HuH6 Clone 5): ≥ 1000 nM; EC50 (HuH7): 100 to 1000 nM; EC50 (HuCCT1): 100 to 1000 nM |
